{"source": "patent US6969609B1", "about": "(priority 1998, dated 2005)", "system": "CAP-M8-specific CD8^+ effector T-cell line", "format": "cell-based, murine"}
{"substance": "TNF-α", "values": [{"measurement": "increase in peptide-specific proliferation over unmanipulated DC", "result": 28, "unit": "%"}]}
